Assay results: US20090325959A1 (priority 2008, published 2009)
Like-named read-outs stand apart in the source and are kept apart here.

How the values were obtained:
Mnk2 = target: T1, Mnk2 (Homo sapiens, UniProt Q9HBH9); test: Kinase panel screen (KinaseProfiler), Mnk2; assay type: biochemical; details: 10 μM ATP
T1 construct: purchased Upstate, Millipore Bioscience Division (KinaseProfiler service)
Experimental: (§1) Compounds of Formulae I and II were examined for activity against a selected panel of kinases using the KinaseProfiler™ enzyme profiling services (Upstate, Millipore Bioscience Division). Percent kinase activity at 10 μM and 1 μM test compound and 10 μM ATP was determined against 40 wild-type recombinant human kinases according to Upstate's standard protocol: ASK1, BTK, CSK, c-RAF, GCK, GSK3β, IKKα, IKKβ, IRAK1, IRAK4, JNK1α1, JNK2α2, JNK3, ERK1, ERK2, MAPKAP-K2, MAPKAP-K3, MEK1, MKK4, MKK6, MKK7β, Mnk2, MSK1, PAK3, PDK1, PRAK, ROCK1, Rsk2, SAPK2a, SAPK2b, SAPK3, SAPK4, SRPK1, SRPK2, Syk, TAK1, TBK1, PI3-Kβ, PI3-Kγ, PI3-Kδ.

GCK = target: T2, GCK (Homo sapiens, UniProt Q12851); test: Kinase panel screen (KinaseProfiler), GCK; assay type: biochemical
T2 construct: purchased Upstate, Millipore Bioscience Division (KinaseProfiler service)
T2 sequence (Q12851 1-820): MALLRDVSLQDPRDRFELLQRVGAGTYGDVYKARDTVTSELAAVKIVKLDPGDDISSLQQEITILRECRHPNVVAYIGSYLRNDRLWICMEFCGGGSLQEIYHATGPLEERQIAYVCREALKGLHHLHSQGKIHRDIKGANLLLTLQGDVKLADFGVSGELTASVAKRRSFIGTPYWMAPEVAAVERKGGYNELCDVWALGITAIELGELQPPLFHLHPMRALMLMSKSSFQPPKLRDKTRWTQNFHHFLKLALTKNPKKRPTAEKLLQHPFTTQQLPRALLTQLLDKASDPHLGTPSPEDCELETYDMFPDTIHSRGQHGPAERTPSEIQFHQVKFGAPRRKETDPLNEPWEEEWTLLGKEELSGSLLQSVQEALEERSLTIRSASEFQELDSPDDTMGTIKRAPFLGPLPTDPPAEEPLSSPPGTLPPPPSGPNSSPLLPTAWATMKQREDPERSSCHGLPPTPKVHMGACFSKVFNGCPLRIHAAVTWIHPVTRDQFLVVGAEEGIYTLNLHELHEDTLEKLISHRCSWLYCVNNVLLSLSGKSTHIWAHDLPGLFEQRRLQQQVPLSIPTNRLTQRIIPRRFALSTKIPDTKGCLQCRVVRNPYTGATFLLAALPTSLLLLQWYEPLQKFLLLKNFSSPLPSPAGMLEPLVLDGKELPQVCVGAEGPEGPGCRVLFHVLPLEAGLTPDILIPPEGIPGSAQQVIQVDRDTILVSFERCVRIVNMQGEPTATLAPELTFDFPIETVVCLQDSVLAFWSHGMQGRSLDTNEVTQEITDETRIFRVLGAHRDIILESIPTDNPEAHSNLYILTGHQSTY
Experimental: as §1

ERK1 = target: T3, ERK1 (Homo sapiens, UniProt P27361); test: Kinase panel screen (KinaseProfiler), ERK1; assay type: biochemical
T3 construct: purchased Upstate, Millipore Bioscience Division (KinaseProfiler service)
T3 sequence (P27361 whole entry): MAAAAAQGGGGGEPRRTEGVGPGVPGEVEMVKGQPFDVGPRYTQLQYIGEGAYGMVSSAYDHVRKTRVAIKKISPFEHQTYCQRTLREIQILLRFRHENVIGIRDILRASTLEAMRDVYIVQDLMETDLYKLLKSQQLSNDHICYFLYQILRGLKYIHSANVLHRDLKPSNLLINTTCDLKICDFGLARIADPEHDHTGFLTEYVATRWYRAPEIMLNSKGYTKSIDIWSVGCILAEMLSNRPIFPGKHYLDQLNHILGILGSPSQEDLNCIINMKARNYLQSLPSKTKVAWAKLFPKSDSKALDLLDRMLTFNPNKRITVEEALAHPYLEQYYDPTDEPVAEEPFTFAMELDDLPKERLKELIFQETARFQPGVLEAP
Experimental: as §1

ERK2 = target: T4, ERK2 (Homo sapiens, UniProt P28482); test: Kinase panel screen (KinaseProfiler), ERK2; assay type: biochemical
T4 construct: purchased Upstate, Millipore Bioscience Division (KinaseProfiler service)
T4 sequence (P28482 whole entry): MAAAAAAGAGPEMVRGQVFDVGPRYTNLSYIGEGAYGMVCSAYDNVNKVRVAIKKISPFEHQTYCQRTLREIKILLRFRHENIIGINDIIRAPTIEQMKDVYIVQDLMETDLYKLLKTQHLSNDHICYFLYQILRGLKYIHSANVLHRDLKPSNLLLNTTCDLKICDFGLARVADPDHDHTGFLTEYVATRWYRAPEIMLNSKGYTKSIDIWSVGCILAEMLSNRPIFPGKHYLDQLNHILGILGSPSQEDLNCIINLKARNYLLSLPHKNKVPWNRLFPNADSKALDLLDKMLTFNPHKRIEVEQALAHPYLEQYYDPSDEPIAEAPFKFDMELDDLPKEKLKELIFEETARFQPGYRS
Experimental: as §1

IRAK1 = target: T5, IRAK1 (Homo sapiens, UniProt P51617); test: Kinase panel screen (KinaseProfiler), IRAK1; assay type: biochemical; details: 10 μM ATP
T5 construct: purchased Upstate, Millipore Bioscience Division (KinaseProfiler service)
T5 sequence (P51617 whole entry): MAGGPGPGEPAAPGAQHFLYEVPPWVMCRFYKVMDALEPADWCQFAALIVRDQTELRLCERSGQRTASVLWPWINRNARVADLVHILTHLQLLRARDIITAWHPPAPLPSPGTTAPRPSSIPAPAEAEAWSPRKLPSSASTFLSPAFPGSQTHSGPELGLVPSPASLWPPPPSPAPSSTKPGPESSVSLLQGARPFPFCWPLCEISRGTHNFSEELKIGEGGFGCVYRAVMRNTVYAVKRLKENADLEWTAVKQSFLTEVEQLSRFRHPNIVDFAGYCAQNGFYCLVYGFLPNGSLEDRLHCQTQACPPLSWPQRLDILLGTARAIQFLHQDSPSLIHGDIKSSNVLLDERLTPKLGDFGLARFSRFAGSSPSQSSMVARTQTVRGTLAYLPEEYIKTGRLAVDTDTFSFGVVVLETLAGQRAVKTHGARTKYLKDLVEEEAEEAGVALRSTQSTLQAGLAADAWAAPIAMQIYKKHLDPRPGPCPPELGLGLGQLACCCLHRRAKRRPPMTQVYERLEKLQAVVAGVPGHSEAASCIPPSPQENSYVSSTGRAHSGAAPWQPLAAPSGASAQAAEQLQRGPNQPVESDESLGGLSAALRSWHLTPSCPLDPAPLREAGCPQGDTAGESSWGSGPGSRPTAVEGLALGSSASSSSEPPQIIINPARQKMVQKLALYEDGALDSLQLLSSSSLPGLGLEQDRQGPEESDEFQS
Experimental: as §1

IRAK4 = target: T6, IRAK4 (Homo sapiens, UniProt Q9NWZ3); test: Kinase panel screen (KinaseProfiler), IRAK4; assay type: biochemical; details: 10 μM ATP
T6 construct: purchased Upstate, Millipore Bioscience Division (KinaseProfiler service)
T6 sequence (Q9NWZ3 1-460): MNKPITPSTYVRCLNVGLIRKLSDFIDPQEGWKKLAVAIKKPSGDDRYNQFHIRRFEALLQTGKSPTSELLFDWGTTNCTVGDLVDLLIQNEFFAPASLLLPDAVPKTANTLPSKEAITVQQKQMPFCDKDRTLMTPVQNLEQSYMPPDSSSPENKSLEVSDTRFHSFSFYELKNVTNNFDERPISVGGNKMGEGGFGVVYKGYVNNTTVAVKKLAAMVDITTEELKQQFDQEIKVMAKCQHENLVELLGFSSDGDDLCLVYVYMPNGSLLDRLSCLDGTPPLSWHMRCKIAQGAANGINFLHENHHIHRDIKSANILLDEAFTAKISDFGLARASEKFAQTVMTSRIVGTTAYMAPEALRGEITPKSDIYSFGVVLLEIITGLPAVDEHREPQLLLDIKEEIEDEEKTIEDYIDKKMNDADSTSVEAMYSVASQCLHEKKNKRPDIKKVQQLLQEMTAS
Experimental: as §1

[1] = tested on: A-10 rat thoracic aorta cells; test: PDGF-stimulated smooth muscle cell proliferation assay (BrdU incorporation); assay type: cell-based; details: A-10 cells, 10 ng/mL PDGF, BrdU incorporation, percent of total challenge-stimulated proliferation;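 also: cells kept in serum-free medium, BrdU allowed to incorporate for 24 h, then incorporated label detected fluorometrically with an anti-BrdU antibody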
[2] = Compound plasma concentrations in unsensitized mice at 15 min post administration; assay type: in vivo; details: mouse, 15 μmol/kg; mean compound plasma concentration in mice at 15 minutes post oral administration; read-out: Mouse Oral PK
p70S6K human enzyme = target: T7, p70S6K human enzyme (Homo sapiens, UniProt P23443, T412E); test: p70S6K inhibition assay (IMAP FP); assay type: biochemical;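 also: kinase reaction run at room temperature, phosphorylated substrate captured on IMAP beads and read as fluorescence polarization in mP, IC50 then converted to Ki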
T7 construct: purchased Upstate Chemicon 14-486
T7 sequence (P23443 1-421 T412E limits assumed): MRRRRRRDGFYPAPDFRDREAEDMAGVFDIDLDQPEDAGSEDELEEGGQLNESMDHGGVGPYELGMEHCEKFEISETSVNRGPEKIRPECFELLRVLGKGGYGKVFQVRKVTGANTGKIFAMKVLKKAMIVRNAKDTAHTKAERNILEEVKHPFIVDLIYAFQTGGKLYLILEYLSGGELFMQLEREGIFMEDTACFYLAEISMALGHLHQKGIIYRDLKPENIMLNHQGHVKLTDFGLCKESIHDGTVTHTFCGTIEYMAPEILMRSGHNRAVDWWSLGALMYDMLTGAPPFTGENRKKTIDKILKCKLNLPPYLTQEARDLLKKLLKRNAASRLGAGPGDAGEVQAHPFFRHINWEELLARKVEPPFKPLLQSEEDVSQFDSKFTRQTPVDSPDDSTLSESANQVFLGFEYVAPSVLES
Experimental: (§2) Inhibition of Akt3 and p70S6K activity was determined using the IMAP™ FP Progressive Binding Kit (Molecular Devices product number R8127). […] Following the pre-incubation, 30 μM ATP was added to initiate the reaction. After 60 minutes at RT, Molecular Devices IMAP™ binding solution was added to bind phosphorylated substrate. After 30 minutes of incubation in the presence of the IMAP™ beads the fluorescence polarization was read and the ratio was reported as mP. IC50 results were calculated using the Prism software from Graphpad. The Ki values were determined according to the following formula: Ki=IC50/(1+([ATP Challenge]/EC50 ATP)).

human monocytes = test: Human monocyte cytokine secretion assay (LPS-stimulated); assay type: cell-based; details: for IC50: Monocyte, LPS-stimulated human monocytes
Experimental: Peripheral blood from healthy human volunteers was collected and the monocytes isolated via Ficoll-paque density centrifugation. […] The cells were allowed to pre-incubate with test compound at the indicated concentration for 30 minutes (37° C., 5% CO2, humidified air); after which the supernatant was removed and media containing compound and 1 ng/mL LPS was added. Cells were allowed to incubate with compounds and LPS for 4 hours at 37° C. after which the supernatant was removed and stored at −80° C. Cytokine concentrations in the supernatant were determined using commercially available Bio-Rad Bio-plex™ kits according the manufacturer's instructions.

Akt3 human enzyme = target: T8, Akt3 human enzyme (Homo sapiens, UniProt Q9Y243); test: Akt3 inhibition assay (IMAP FP); assay type: biochemical;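 also: kinase reaction run 60 min at room temperature after 30 µM ATP start, phosphorylated substrate captured on IMAP beads and read as fluorescence polarization (mP)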
T8 construct: purchased Upstate Chemicon 14-502
T8 sequence (Q9Y243 whole entry): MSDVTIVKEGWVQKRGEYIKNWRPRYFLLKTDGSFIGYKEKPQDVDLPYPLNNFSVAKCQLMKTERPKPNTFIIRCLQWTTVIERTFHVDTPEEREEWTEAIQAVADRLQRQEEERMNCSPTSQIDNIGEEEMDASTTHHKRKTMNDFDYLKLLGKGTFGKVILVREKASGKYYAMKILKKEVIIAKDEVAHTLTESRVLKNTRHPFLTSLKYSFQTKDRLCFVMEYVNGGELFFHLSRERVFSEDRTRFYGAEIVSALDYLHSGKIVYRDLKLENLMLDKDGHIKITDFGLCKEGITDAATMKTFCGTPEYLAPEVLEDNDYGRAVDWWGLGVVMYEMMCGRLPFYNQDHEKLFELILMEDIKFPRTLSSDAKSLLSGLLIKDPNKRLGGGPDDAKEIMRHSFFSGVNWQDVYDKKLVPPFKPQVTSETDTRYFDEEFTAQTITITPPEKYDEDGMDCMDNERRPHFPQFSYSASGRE
Experimental: as §2

T1 sequence (Q9HBH9 whole entry): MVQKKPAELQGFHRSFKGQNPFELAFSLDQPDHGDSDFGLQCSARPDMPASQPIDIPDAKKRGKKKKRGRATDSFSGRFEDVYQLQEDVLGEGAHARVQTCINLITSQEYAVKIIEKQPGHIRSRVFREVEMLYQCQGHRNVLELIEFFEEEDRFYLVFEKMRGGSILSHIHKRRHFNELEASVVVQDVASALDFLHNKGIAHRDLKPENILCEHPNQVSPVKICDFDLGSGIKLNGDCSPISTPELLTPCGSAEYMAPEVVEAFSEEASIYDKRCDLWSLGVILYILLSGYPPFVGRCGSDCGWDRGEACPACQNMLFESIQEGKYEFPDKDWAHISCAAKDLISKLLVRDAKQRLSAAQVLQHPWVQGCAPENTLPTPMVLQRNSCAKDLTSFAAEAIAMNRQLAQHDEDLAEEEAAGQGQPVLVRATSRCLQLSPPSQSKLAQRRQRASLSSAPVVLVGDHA

NC(=O)Cn1ccc2cc(CN3CC[C@@H](Nc4cccc5cnccc45)C3)ccc21 [Compound 2.059, (R)-2-(5-((3-(isoquinolin-5-ylamino)pyrrolidin-1-yl)methyl)-1H-indol-1-yl)acetamide]
activity at 1 µM (Mnk2; 1 μM test compound, read-out: Mnk2 Percent inhibition, 1 μM): 49%
activity at 10 µM (Mnk2; 10 μM test compound, read-out: Mnk2 Percent inhibition, 10 μM): 12%
GCK Percent inhibition, 1 μM (GCK): 75%
activity at 10 µM (GCK; 10 μM test compound, 10 μM ATP, read-out: GCK Percent inhibition, 10 μM): 34%
activity at 1 µM (ERK1; 1 μM test compound, 10 μM ATP, read-out: ERK1 Percent inhibition, 1 μM): 37%
inhibition at 1 µM (ERK1; 1 μM, read-out: ERK1 inhibited): ~50%
activity at 10 µM (ERK1; 10 μM test compound, 10 μM ATP, read-out: ERK1 Percent inhibition, 10 μM): 4%
ERK2 Percent inhibition, 1 μM (ERK2): 56%
ERK2 Percent inhibition, 10 μM (ERK2): 12%
inhibition at 1 µM (ERK2; 1 μM, read-out: ERK2 inhibited): ~50%
activity at 1 µM (IRAK1; 1 μM test compound, read-out: IRAK1 Percent inhibition, 1 μM): 87%
activity at 10 µM (IRAK1; 10 μM test compound, read-out: IRAK1 Percent inhibition, 10 μM): 30%
activity at 1 µM (IRAK4; 1 μM test compound, read-out: IRAK4 Percent inhibition, 1 μM): 63%
activity at 10 µM (IRAK4; 10 μM test compound, read-out: IRAK4 Percent inhibition, 10 μM): 22%
Percent of PDGF Induced Proliferation at 1 μM Avg ([1]; 1 μM test compound): 75.0%
Percent of PDGF Induced Proliferation at 10 μM Avg ([1]; 10 μM test compound): 25.5%
concentration at 15 min [2]: 90 nM
Ki (p70S6K human enzyme; 30 μM ATP, Ki=IC50/(1+([ATP Challenge]/EC50 ATP)), read-out: p70S6K Ki, Avg): 208 nM
Ki (p70S6K human enzyme; average Ki, read-out: p70S6K Ki): 208 nM
IC50 (human monocytes; read-out: IC50 for inhibition of IL-1β secretion): 169 ± 13 nM
IC50 (human monocytes; read-out: IC50 for inhibition of IL-9 secretion): 269 ± 28.1 nM
IC50 (human monocytes; read-out: IC50 for inhibition of TNF-α secretion): 207 ± 17 nM
IL-6, % (human monocytes; average percent of stimulated IL-6 secretion from human monocytes at 10 μM of test compound): 0.0%
Ki (Akt3 human enzyme; 30 μM ATP, Ki=IC50/(1+([ATP Challenge]/EC50 ATP)), read-out: Akt3 Ki, Avg): 120 nM
Ki (Akt3 human enzyme; average Ki, read-out: Akt3 Ki): 120 nM
